The results in this text go back to patent US6245799A, “[(Indol-3-yl)-cycloalkyl]-3-substituted azetidines for the treatment of central nervous system disorders” (American Home Products Corp, priority 2000, dated 2001).

For one test, the target named is T1, 5-HT transporter (Rattus norvegicus, UniProt P31652).
T1 construct: frontal cortical membranes prepared from male S.D. rats; from tissue; host or cells: frontal cortical membranes of male S.D. (Sprague-Dawley) rats
Briefly: Rat Brain ^3 H-Paroxetine Binding Assay (RB 5HT Transporter). An excerpt: The 5-HT transporter affinity of the compounds of this invention was established in accordance with standard pharmaceutically accepted test procedures with representative compounds as follows:
Rat Brain ^3 H-Paroxetine Binding Assay (RB 5HT Transporter):
The following assay was used to determine a compound's affinity for the 5-HT transporter.
A protocol similar to that used by Cheetham et. al. (Neuropharmacol. 1993, 32, 737) was used. Briefly, frontal cortical membranes prepared from male S.D. rats were incubated with ^3 H-paroxetine (0.1 nM) for 60 min. at 25° C. All tubes also contained either vehicle, test compound (one to eight concentrations), or a saturating concentration of fluoxetine (10 μM) to define […]. All reactions are terminated by the addition of ice cold Tris buffer followed by rapid filtration using a Tom Tech filtration device to separate bound from free ^3 H-paroxetine. Bound radioactivity was quantitated using a Wallac 1205 Beta Plate® counter. Nonlinear regression analysis was used to determine IC50 values which were converted to Ki values using the method of Cheng and Prusoff (Biochem. Pharmacol. 1973, 22, 3099): [formula]

Another test has as its target T2, Human 5-HT Transporter (Homo sapiens, UniProt P31645).
T2 construct: endogenous in cells; host or cells: Jar cells (human carcinoma cell line), treated with staurosporine to raise expression
The test is described as follows: Inhibition of ^3 H-5-HT Uptake by cells Possessing the Human 5-HT Transporter (HC 5HT Transporter). The class given is cell-based. How it is done:
[Staurosporine greatly increases the expression of the 5-HT-transporter.] On the day of assay, vehicle, excess of fluoxetine, or test compound is added to various wells on the plate. All wells then receive ^3 H-5-HT and are incubated at 37° C. for 5 min. The wells are then washed with ice cold 50 mM Tris HCl (pH 7.4) buffer and aspirated to remove free ^3 H-5-HT. 25 μl of 0.25 M NaOH is then added to each well to lyse the cells and 75 μl scintillation cocktail (Microscint™ 20) added prior to quantitation on a Packard TopCount machine. Tubes with vehicle represent total possible uptake, radioactivity counted in tubes with fluoxetine represent nonspecific binding/uptake and is subtracted from the total possible uptake to give total possible specific uptake. This nonspecific binding (usual low in number) is then subtracted from the counts obtained in wells with various test compounds (or different concentrations of test drug) to give specific uptake in the presence of drug. Specific uptake is then expressed as a % of control values and is analyzed using nonlinear regression analysis (Prizm) to determine IC50 values. If the compound is active at inhibiting 5-HT uptake, its counts will be close to that obtained with fluoxetine.

The mark [1] stands for this setting: rat frontal cortical membranes; ^3 H-paroxetine (0.1 nM), 60 min, 25° C.; n = 1; read-out: RB 5HT Transporter Ki.
[2] abbreviates: Jar cells (human carcinoma), staurosporine treated, ^3 H-5-HT uptake, 37° C., 5 min, n = 1, read-out: HC 5HT Transporter IC50.
The mark [3] stands for this setting: RB 5HT Transporter Ki, rat frontal cortical membranes; ^3 H-paroxetine (0.1 nM), 60 min, 25° C.; n = 1.

pIC50, pKi: −log10 of the molar value. Like-named read-outs stand apart in the source and are kept apart here.

T2 sequence (P31645 whole entry): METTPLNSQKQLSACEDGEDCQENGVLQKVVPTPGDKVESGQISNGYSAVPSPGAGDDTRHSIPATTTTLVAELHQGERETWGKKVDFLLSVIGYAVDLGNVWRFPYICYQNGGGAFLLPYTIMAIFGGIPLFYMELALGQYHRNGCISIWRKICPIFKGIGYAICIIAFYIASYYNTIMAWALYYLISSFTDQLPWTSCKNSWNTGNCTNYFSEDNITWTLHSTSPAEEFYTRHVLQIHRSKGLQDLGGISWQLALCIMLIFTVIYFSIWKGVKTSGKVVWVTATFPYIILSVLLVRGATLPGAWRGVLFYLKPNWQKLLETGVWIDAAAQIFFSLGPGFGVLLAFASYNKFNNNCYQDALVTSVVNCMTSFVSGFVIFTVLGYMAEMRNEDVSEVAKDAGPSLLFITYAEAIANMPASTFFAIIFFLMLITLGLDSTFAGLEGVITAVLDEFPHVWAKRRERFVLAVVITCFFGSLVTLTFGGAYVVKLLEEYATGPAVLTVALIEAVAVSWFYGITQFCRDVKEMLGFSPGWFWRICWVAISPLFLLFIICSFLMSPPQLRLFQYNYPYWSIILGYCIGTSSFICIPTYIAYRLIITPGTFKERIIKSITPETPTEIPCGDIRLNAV
T1 sequence (P31652 whole entry): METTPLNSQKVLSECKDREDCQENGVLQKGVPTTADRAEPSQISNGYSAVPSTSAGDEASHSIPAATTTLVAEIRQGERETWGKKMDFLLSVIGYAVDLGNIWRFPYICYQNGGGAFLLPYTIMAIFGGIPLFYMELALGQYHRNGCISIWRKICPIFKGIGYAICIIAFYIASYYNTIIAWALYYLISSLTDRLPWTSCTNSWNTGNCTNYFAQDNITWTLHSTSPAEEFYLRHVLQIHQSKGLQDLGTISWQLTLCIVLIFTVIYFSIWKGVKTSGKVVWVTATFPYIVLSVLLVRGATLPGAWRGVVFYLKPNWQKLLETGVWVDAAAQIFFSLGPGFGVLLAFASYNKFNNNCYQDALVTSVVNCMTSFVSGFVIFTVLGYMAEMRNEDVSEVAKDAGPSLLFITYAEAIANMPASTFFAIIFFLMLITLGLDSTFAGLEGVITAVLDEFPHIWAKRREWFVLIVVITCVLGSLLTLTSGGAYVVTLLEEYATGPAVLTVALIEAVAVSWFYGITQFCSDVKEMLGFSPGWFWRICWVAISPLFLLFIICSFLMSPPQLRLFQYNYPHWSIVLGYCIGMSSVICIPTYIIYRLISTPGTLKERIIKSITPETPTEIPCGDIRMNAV

Turning to “2-{cis-4-[3-(3-Methoxy-phenoxy)-azetidin-1-yl]-cyclohexyl}-1H-indole [Example 6a]”, on 5-HT transporter (setting [1]), the pKi was 6.92.

`Fc1cccc(OC2CN(C3CCC(c4c[nH]c5cc(F)ccc45)CC3)C2)c1` (single isomer, unassigned) [Example 10a, 6-Fluoro-3-{4-[3-(3-fluoro-phenoxy)-azetidin-1-yl]-cyclohexyl}-1H-indole]: the pKi at 5-HT transporter (setting [1]) was 6.72.

As for `Fc1cccc(OC2CN(C3CCC(c4c[nH]c5cc(F)ccc45)CC3)C2)c1` (single isomer, unassigned) [Example 10b, 6-Fluoro-3-{4-[3-(3-fluoro-phenoxy)-azetidin-1-yl]-cyclohexyl}-1H-indole], the pKi on 5-HT transporter (setting [1]) is 7.14. In addition, the pIC50 at Human 5-HT Transporter (setting [2]) is 5.34.

Consider `COc1ccccc1NC1CN([C@H]2CC[C@@H](c3c[nH]c4ccc(F)cc43)CC2)C1` [Example 1a], for which the pKi at 5-HT transporter (setting [1]) was 7.82. In addition, at Human 5-HT Transporter (setting [2]), the pIC50 is 6.02.

In the case of `COc1ccccc1NC1CN([C@H]2CC[C@H](c3c[nH]c4ccc(F)cc43)CC2)C1` [Example 1b], the negative-log Ki (pKi) at 5-HT transporter (setting [1]) is 7.77. On Human 5-HT Transporter (setting [2]), the pIC50 was 6.23.

As to `N#Cc1ccc2[nH]cc([C@H]3CC[C@@H](N4CC(Oc5cccc(F)c5)C4)CC3)c2c1` [Example 2a, 3-(cis-4-[3-(3-Fluoro-phenoxy)-azetidin-1-yl]-cyclohexyl)-1H-indole-5-carbonitrile], the pKi on 5-HT transporter (setting [1]) is 7.80. For the same compound, the pIC50 at Human 5-HT Transporter (setting [2]) is 6.47.

In the case of `N#Cc1ccc2[nH]cc([C@H]3CC[C@H](N4CC(Oc5cccc(F)c5)C4)CC3)c2c1` [Example 2b, 3-(trans-4-[3-(3-Fluoro-phenoxy)-azetidin-1-yl]-cyclohexyl)-1H-indole-5-carbonitrile], on 5-HT transporter (setting [1]), the pKi is 7.32. Besides, the pIC50 on Human 5-HT Transporter (setting [2]) is 6.55.

As to `COc1cccc(OC2CN([C@H]3CC[C@@H](c4c[nH]c5ccc(C#N)cc54)CC3)C2)c1` [Example 3a], the pKi at 5-HT transporter (setting [3]) is 8.62. At Human 5-HT Transporter, this compound gave a pIC50 of 7.04.

Consider `COc1cccc(OC2CN([C@H]3CC[C@H](c4c[nH]c5ccc(C#N)cc54)CC3)C2)c1` [Example 3b], for which the negative logarithm of the Ki (pKi) at 5-HT transporter (setting [3]) was 7.96. Besides, the pIC50 against Human 5-HT Transporter is 6.63.

Regarding `Fc1cccc(NC2CN([C@H]3CC[C@@H](c4c[nH]c5ccc(F)cc54)CC3)C2)c1` [Example 4, {1-[cis-4-(5-Fluoro-1H-indol-3-yl)-cyclohexyl]-azetidin-3-yl}-(3-fluoro-phenyl)-amine], the pKi on 5-HT transporter (setting [1]) was 7.74. Also, the pIC50 on Human 5-HT Transporter (setting [2]) was 5.19.

`COc1ccccc1NC1CN([C@H]2CC[C@@H](c3c[nH]c4ccccc43)CC2)C1` [Example 5a, {1-[cis-4-(1H-Indol-3-yl)-cyclohexyl]-azetidin-3-yl}-(2-methoxy-phenyl)-amine] showed a pKi on 5-HT transporter (setting [3]) of 6.91.

At 5-HT transporter (setting [3]), `COc1ccccc1NC1CN([C@H]2CC[C@H](c3c[nH]c4ccccc43)CC2)C1` [Example 5b, {1-[trans-4-(1H-Indol-3-yl)-cyclohexyl]-azetidin-3-yl}-(2-methoxy-phenyl)-amine] had a pKi of 7.47.

Consider `Fc1cccc(OC2CN([C@H]3CC[C@@H](c4c[nH]c5ccc(F)cc54)CC3)C2)c1` [Example 7a, 5-Fluoro-3-{cis-4-[3-(3-fluoro-phenoxy)-azetidin-1-yl]-cyclohexyl}-1H-indole], for which the negative logarithm of the Ki (pKi) on 5-HT transporter (setting [1]) is 6.59.

Regarding `Fc1cccc(OC2CN([C@H]3CC[C@H](c4c[nH]c5ccc(F)cc54)CC3)C2)c1` [Example 7b, 5-Fluoro-3-{trans-4-[3-(3-fluoro-phenoxy)-azetidin-1-yl]-cyclohexyl}-1H-indole], the pKi at 5-HT transporter (read-out: RB 5HT Transporter Ki; rat frontal cortical membranes; ^3 H-paroxetine (0.1 nM), 60 min, 25° C.; n = 1) is 7.17. On Human 5-HT Transporter (read-out: HC 5HT Transporter IC50, Jar cells (human carcinoma), staurosporine treated, ^3 H-5-HT uptake, 37° C., 5 min, n = 1), the pIC50 is 5.22.

As to `COc1cccc(OC2CN([C@H]3CC[C@@H](c4c[nH]c5ccc(F)cc54)CC3)C2)c1` [Example 8a, 5-Fluoro-3-{cis-4-[3-(3-methoxy-phenoxy)-azetidin-1-yl]-cyclohexyl}-1H-indole], the pKi at 5-HT transporter (setting [1]) was 7.62. In addition, the negative logarithm of the IC50 (pIC50) at Human 5-HT Transporter (setting [2]) was 5.22.

Consider `COc1cccc(OC2CN([C@H]3CC[C@H](c4c[nH]c5ccc(F)cc54)CC3)C2)c1` [Example 8b, 5-Fluoro-3-{trans-4-[3-(3-methoxy-phenoxy)-azetidin-1-yl]-cyclohexyl}-1H-indole], for which the pKi at 5-HT transporter (setting [1]) is 7.35. Moreover, the pIC50 on Human 5-HT Transporter (setting [2]) is 5.82.

On 5-HT transporter (setting [3]), `Fc1cccc(OC2CN([C@H]3CC[C@@H](c4c[nH]c5ccccc54)CC3)C2)c1` [Example 9a, 3-{4-[3-(3-Fluoro-phenoxy)-azetidin-1-yl]-cyclohexyl}-1H-indole] had a pKi of 6.56.

`Fc1cccc(OC2CN([C@H]3CC[C@H](c4c[nH]c5ccccc54)CC3)C2)c1` [Example 9b, 3-{4-[3-(3-Fluoro-phenoxy)-azetidin-1-yl]-cyclohexyl}-1H-indole]: the negative logarithm of the Ki (pKi) on 5-HT transporter (setting [3]) is 6.34.

What is called pKi is the negative decadic logarithm of the Ki, by convention in mol/L. In general, pIC50 refers to the IC50 on a negative log10 scale, so that one unit is a factor of ten.
